#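 Where inhibition never reached the appropriate level, the endpoint shown equals the highest concentration tested. Otherwise, values were interpolated linearly from a five-concentration, 48-hour dose response in 96-well plates. GI50 is the concentration that inhibits growth by half. TGI marks complete inhibition of growth.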
# How the values were obtained:
# Experiment in all cases: NCI tumour cell line growth inhibition, 48 h
# CAKI-1 renal = system: CAKI-1 renal
# HOP-92 NSCLC = system: HOP-92 NSCLC
# MCF7 breast = system: MCF7 breast
# NCI-H460 lung = system: NCI-H460 lung
# OVCAR-3 ovarian = system: OVCAR-3 ovarian
# OVCAR-4 ovarian = system: OVCAR-4 ovarian
# SF-539 CNS = system: SF-539 CNS
# SK-MEL-28 melanoma = system: SK-MEL-28 melanoma
# HL-60(TB) leukemia = system: HL-60(TB) leukemia
# SK-OV-3 ovarian = system: SK-OV-3 ovarian
Compound,GI50 (CAKI-1 renal) [µM],TGI (CAKI-1 renal) [µM],GI50 (HOP-92 NSCLC) [µM],TGI (HOP-92 NSCLC) [µM],GI50 (MCF7 breast) [µM],TGI (MCF7 breast) [µM],GI50 (NCI-H460 lung) [µM],TGI (NCI-H460 lung) [µM],GI50 (OVCAR-3 ovarian) [µM],TGI (OVCAR-3 ovarian) [µM],GI50 (OVCAR-4 ovarian) [µM],TGI (OVCAR-4 ovarian) [µM],TGI (SF-539 CNS) [µM],GI50 (SK-MEL-28 melanoma) [µM],TGI (SK-MEL-28 melanoma) [µM],GI50 (HL-60(TB) leukemia) [µM],TGI (HL-60(TB) leukemia) [µM],GI50 (SF-539 CNS) [µM],GI50 (SK-OV-3 ovarian) [µM],TGI (SK-OV-3 ovarian) [µM]
Nc1[nH]nc2nc(-c3cc(Cl)ccc3Cl)cc(-c3ccc(F)cc3)c12,26.9,> 100,14.5,30,11.8,37.5,19.7,58,24,65.4,39.2,> 100,21.1,36.9,> 100,–,–,–,–,–
O=C(/C=C/c1ccccc1)c1cccc2ccccc12,2.11,6.62,2.05,6.8,3.07,11.1,1.84,3.86,2.01,4.71,–,–,11,5.02,16.6,1.49,5.21,3.5,3.11,11.3
COC(=O)c1c[nH]c2cc(OC(C)C)c(OC(C)C)cc2c1=O,> 100,> 100,> 100,> 100,> 100,> 100,> 100,> 100,> 100,> 100,–,–,> 100,> 100,> 100,> 100,> 100,> 100,> 100,> 100
C=C1C(=O)O[C@H]2[C@H]1CC/C(COC(=O)c1cccnc1N)=C\CC[C@@]1(C)O[C@@H]21,–,–,0.282,2.63,0.553,14.6,3.09,10.8,1.04,2.88,2.08,19.4,8.74,2.01,8.85,0.262,0.749,2.56,12.2,73
C=CCn1c2ccccc2c2c3c(c4c5ccccc5n(CC=C)c4c21)C(=O)N(O)C3=O,1.69,3.45,7.13,25.5,0.674,29.9,2.78,10.7,2.32,8.07,5.38,44.8,–,5.47,> 100,2.09,4.31,–,3.22,> 100
C=C1c2nc3ccccc3n2C=C(c2cccc(Cl)c2)N1Cc1ccc(OC)cc1,–,4.71,2.36,> 82.4,0.331,> 39.4,0.416,10.5,–,–,1.83,> 100,4.56,10.5,54.4,0.193,0.639,0.745,2.88,> 100
COc1cc(OCc2ccccc2)c2c(CCC(=O)O)cc(=O)oc2c1 (tested in a mixture with another compound),–,> 100,–,> 100,–,61.7,–,–,–,> 100,–,> 100,> 100,–,99.9,–,93.7,–,–,> 100
NCCCNc1nc2ccccc2c2c(=O)c3cc(F)ccc3sc12,1.41,2.75,1.31,3.33,1.4,2.88,1.65,3.22,1.7,3.25,1.75,3.4,3.1,1.79,3.24,–,–,1.71,1.56,3.31
Cn1ncc(C#N)c1-c1ccc2c(c1)CN([C@H](CN)Cc1cccc(F)c1)C2=O,–,–,0.134,1.67,0.812,25.4,0.752,> 100,10,> 90.4,23.1,> 100,8.74,3.72,> 83.2,22.1,47.8,0.193,0.255,13.2
COc1cccc(Nc2ncnc3cc(NC(=O)CCl)ccc23)c1,1.06,2.31,1.7,3.4,0.789,3.19,1.32,3.08,0.768,2.22,–,–,2.92,1.65,3.24,1.27,3.54,1.52,1.58,3.15
